The values below come from patent US6313177A, “D-mannitol derivatives as HIV aspartyl protease inhibitors” (Pharmacor Inc., priority 1999, dated 2001).

The target in one assay is T1, recombinant HIV-1 protease (Human immunodeficiency virus type 1 group M subtype B, UniProt P04585).
T1 construct: recombinant HIV-1 protease; purchased Bachem Bioscience
Nature of the assay: Fluorometric (FRET) enzymatic assay for the inhibition constant (Ki) against the HIV protease. In kind it is biochemical.
Conditions: not given
The source says:
Enzymatic Assay for Determining the Inhibition Constant (Ki) of Synthetic Compounds Prepared Against the HIV Protease
This is a fluorometric assay based on the cleavage by protease of a substrate carrying a donor group (EDANS, excitation at 340 nm and emission at 490 nm) and an acceptor group (DABCYL) on each side of the cleavage site, interacting together through fluorescence resonance energy transfer (FRET). Cleavage of the substrate by protease stops energy exchange between the two groups, resulting in a time-dependent increase in fluorescence intensity that is linearly related to the extent of substrate hydrolysis.
The enzymatic assay is done at 30° C. in a spectrophotometer microcuvet, in a total volume of 400 μL. The apparatus used for readings is a UV-visible Cary 1 spectrophotometer made by Varian. The reaction is run first in the absence of protease inhibitors for 2 min, using 355 μL of buffer at pH 4.7 (sodium acetate 100 mM, NaCl 1 M, EDTA 1 mM, DTT 1 mM, dimethylsulfoxide 10%, and BSA 1 mg/mL), 40 μL of substrate H-2930 from Molecular Probes (final concentration 10 μM) and 5 μL of recombinant HIV-1 protease (final concentration 18.3 nM) purchased from Bachem Bioscience. Fluorescence readings at […] are taken continuously during the reaction, allowing determination of the enzyme's initial velocity (v0). At the end of the 2 min incubation, the potential inhibitor at a defined concentration in a volume of 2 μL is added to the reaction, and fluorescence readings are taken for another 2 min, allowing determination of enzyme velocity (vi) in the presence of the inhibitory compound. Several concentrations of the putative inhibitors are tested in the assay. After calculation of vo and vi, the inhibition constant (Ki) of the compound is determined using the equation of Henderson: [formula]
and [I]=inhibitor concentration, [S ]=substrate concentration, Km=Michaelis-Menten constant, Kiapp =apparent Ki
Note that the Michaelis-Menten constant of HIV protease is determined by running the assay without inhibitors, using several concentrations of substrate, and plotting the results as a Cornish-Bowden graph with the ratio substrate concentration/velocity as the ordinate and substrate concentration as the abscissa.
`O[C@@H]([C@H](O)[C@@H](COCc1ccc(F)cc1)OCc1ccc(F)cc1)[C@@H](COCc1ccc(F)cc1)OCc1ccc(F)cc1` [Compound 52, 1,2,5,6-tetra-O-(4-fluorobenzyl)-D-mannitol]: the Ki was found to be 1.6 µM.
For `O[C@@H]([C@H](O)[C@@H](COCc1ccccc1)OCc1ccccc1F)[C@@H](COCc1ccccc1)OCc1ccccc1F` [Compound 21, 1,6-di-O-benzyl-2,5-di-O-(2-fluorobenzyl)-D-mannitol], the inhibitory constant (Ki) came out at 3.7 µM.
Same read-out and setting: the result for `O[C@@H]([C@H](O)[C@@H](COCc1c(F)cccc1F)OCc1ccc(F)cc1)[C@@H](COCc1c(F)cccc1F)OCc1ccc(F)cc1` [Compound 39, 1,6-di-O-(2,6-difluorobenzyl)-2,5-di-O-(4-fluorobenzyl)-D-mannitol] reads 0.33 µM.

Staying with this assay, now noted: Table 1, benzylated D-mannitol derivatives; pH 4.7, 30° C., substrate 10 μM, protease 18.3 nM.
Take `N#Cc1ccc(COC[C@@H](OCc2ccc(C#N)cc2)[C@@H](O)[C@H](O)[C@@H](COCc2ccc(C#N)cc2)OCc2ccc(C#N)cc2)cc1` [Compound 12, 1,2,5,6-tetra-O-(4-cyanobenzyl)-D-mannitol]: the Ki turned out to be 3.1 µM.
`Cc1ccc(CO[C@H](COCc2ccccc2)[C@@H](O)[C@H](O)[C@@H](COCc2ccccc2)OCc2ccc(C)cc2)cc1` [Compound 24, 1,6-di-O-benzyl-2,5-di-O-(4-methylbenzyl)-D-mannitol]: the Ki was 3.7 µM.
On the same count and under the same terms, the result for `O[C@@H]([C@H](O)[C@@H](COCc1ccccc1)OCc1c(F)c(F)c(F)c(F)c1F)[C@@H](COCc1ccccc1)OCc1c(F)c(F)c(F)c(F)c1F` [Compound 15, 1,6-di-O-benzyl-2,5-di-O-(pentafluorobenzyl)-D-mannitol] reads above 5 µM; that for `O[C@@H]([C@H](O)[C@@H](COCc1ccc(F)cc1)OCc1ccccc1)[C@@H](COCc1ccc(F)cc1)OCc1ccccc1` [Compound 31, 1,6-di-O-(4-fluorobenzyl)-2,5-di-O-benzyl-D-mannitol], 2.5 µM; that for `Nc1ccc(CO[C@H](COCc2ccccc2)[C@@H](O)[C@H](O)[C@@H](COCc2ccccc2)OCc2ccccc2)cc1` [Compound 9, 1,2,6-tri-O-benzyl-5-O-(4-aminobenzyl)-D-mannitol], 3.3 µM.
Regarding `Cc1ccc(COC[C@@H](OCc2ccc(C)cc2)[C@@H](O)[C@H](O)[C@@H](COCc2ccc(C)cc2)OCc2ccc(C)cc2)cc1` [Compound 50, 1,2,5,6-tetra-O-(4-methylbenzyl)-D-mannitol], the Ki was above 1 µM.
With `Oc1cccc(CO[C@H](COCc2ccccc2)[C@@H](O)[C@H](O)[C@@H](COCc2ccccc2)OCc2cccc(O)c2)c1` [Compound 3, 1,6-di-O-benzyl-2,5-di-O-(3-hydroxybenzyl)-D-mannitol], the Ki turned out to be 6 µM.
Same read-out and setting: the figure for `O[C@@H]([C@H](O)[C@@H](COCc1ccccc1F)OCc1ccccc1)[C@@H](COCc1ccccc1F)OCc1ccccc1` [Compound 32, 1,6-di-O-(2-fluorobenzyl)-2,5-di-O-benzyl-D-mannitol] is 0.6 µM; for `O[C@@H]([C@H](O)[C@@H](COCc1ccc(Br)cc1)OCc1ccccc1)[C@@H](COCc1ccc(Br)cc1)OCc1ccccc1` [Compound 54, 1,6-di-O-(4-bromobenzyl)-2,5-di-O-benzyl-D-mannitol] it is above 3 µM.
Still for that read-out and setting: the result for `O[C@@H]([C@H](O)[C@@H](COCc1ccc(C(F)(F)F)cc1)OCc1ccccc1)[C@@H](COCc1ccc(C(F)(F)F)cc1)OCc1ccccc1` [Compound 27, 1,6-di-O-(4-trifluoromethylbenzyl)-2,5-di-O-benzyl-D-mannitol] reads above 2 µM; that for `O[C@@H]([C@H](O)[C@@H](COCc1ccccc1F)OCc1ccc(F)cc1)[C@@H](COCc1ccccc1)OCc1ccc(F)cc1` [Compound 63, 1-O-benzyl-6-O-(2-fluorobenzyl)-2,5-di-O-(4-fluorobenzyl)-D-mannitol], 0.89 µM; that for `O[C@@H]([C@H](O)[C@@H](COCc1ccccc1)OCc1ccc(C(F)(F)F)cc1)[C@@H](COCc1ccccc1)OCc1ccc(C(F)(F)F)cc1` [Compound 22, 1,6-di-O-benzyl-2,5-di-O-(4-trifluoromethylbenzyl)-D-mannitol], 10 µM.
In the case of `Oc1ccc(COC[C@@H](OCc2ccc(F)cc2)[C@@H](O)[C@H](O)[C@@H](COCc2ccc(OCc3ccccc3)cc2)OCc2ccc(F)cc2)cc1` [Compound 76, 1-O-(4-hydroxybenzyl)-6-O-(4-benzyloxybenzyl)-2,5-di-O-(4-fluorobenzyl)-D-mannitol], the inhibition constant Ki was determined as 0.9 µM.
Regarding `COC(=O)c1ccc(CO[C@H](COCc2ccccc2)[C@@H](O)[C@H](O)[C@@H](COCc2ccccc2)OCc2ccc(C(=O)O)cc2)cc1` [Compound 59, 1,6-di-O-benzyl-2-O-(4-carboxybenzyl)-5-O-(4-carbomethoxybenzyl)-D-mannitol], the Ki was 1.4 µM.
Still for that read-out and setting: the figure for `NCc1ccc(CO[C@H](COCc2ccccc2)[C@@H](O)[C@H](O)[C@@H](COCc2ccccc2)OCc2ccc(CN)cc2)cc1` [Compound 46, 1,6-di-O-benzyl-2,5-di-O-(4-aminomethylbenzyl)-D-mannitol] is 27 µM; for `O=[N+]([O-])c1ccc(CO[C@H](COCc2ccccc2)[C@@H](O)[C@H](O)[C@@H](COCc2ccccc2)OCc2ccccc2)cc1` [Compound 61] it is 23 µM; for `O[C@@H]([C@H](O)[C@@H](COCc1ccccc1)OCc1ccc(F)cc1F)[C@@H](COCc1ccccc1)OCc1ccc(F)cc1F` [Compound 23, 1,6-di-O-benzyl-2,5-di-O-(2,4-difluorobenzyl)-D-mannitol] it is 2.6 ± 0.5 µM.
The same measure, in the same setting: the result for `O[C@@H]([C@H](O)[C@@H](COCc1ccccc1F)OCc1ccc(Br)cc1)[C@@H](COCc1ccccc1F)OCc1ccc(Br)cc1` [Compound 34, 1,6-di-O-(2-fluorobenzyl)-2,5-di-O-(4-bromobenzyl)-D-mannitol] reads 1.9 µM; that for `O[C@@H]([C@H](O)[C@@H](COCc1ccccc1)OCc1ccc(F)cc1)[C@@H](COCc1ccccc1)OCc1ccc(F)cc1` [Compound 16, 1,6-di-O-benzyl-2,5-di-O-(4-fluorobenzyl)-D-mannitol], 0.7 µM.
The same measure, in the same setting: the result for `O[C@@H]([C@H](O)[C@@H](COCc1ccccc1)OCc1c(F)cccc1F)[C@@H](COCc1ccccc1)OCc1c(F)cccc1F` [Compound 25, 1,6-di-O-benzyl-2,5-di-O-(2,6-difluorobenzyl)-D-mannitol] reads 6.4 µM; that for `O[C@@H]([C@H](O)[C@@H](COCc1ccccc1)OCc1cccc(F)c1)[C@@H](COCc1ccccc1)OCc1cccc(F)c1` [Compound 20, 1,6-di-O-benzyl-2,5-di-O-(3-fluorobenzyl)-D-mannitol], 1.8 µM; that for `Cc1ccccc1CO[C@H](COCc1ccccc1F)[C@@H](O)[C@H](O)[C@@H](COCc1ccccc1F)OCc1ccccc1C` [Compound 38, 1,6-di-O-(2-fluorobenzyl)-2,5-di-O-(2-methylbenzyl)-D-mannitol], 0.8 µM.
For `NC(=O)c1ccc(CO[C@H](COCc2ccccc2)[C@@H](O)[C@H](O)[C@@H](COCc2ccccc2)OCc2ccc(C(N)=O)cc2)cc1` [Compound 44, 1,6-di-O-benzyl-2,5-di-O-(4-carboxamidobenzyl)-D-mannitol], the Ki amounted to 20 µM.
`O=C(O)c1ccc(CO[C@H](COCc2ccccc2)[C@@H](O)[C@H](O)[C@@H](COCc2ccccc2)OCc2ccc(C(=O)O)cc2)cc1` [Compound 43, 1,6-di-O-benzyl-2,5-di-O-(4-carboxybenzyl)-D-mannitol]: the Ki was determined as 26 µM.

The assay is the same for the next values; noted with them: Table 2, tetra-substituted D-mannitol derivatives; pH 4.7, 30° C., substrate 10 μM, protease 18.3 nM.
Turning to `O[C@@H]([C@H](O)[C@@H](COCc1ccccc1)OCC1CC1)[C@@H](COCc1ccccc1)OCC1CC1` [Compound 83, 1,6-di-O-benzyl-2,5-di-O-cyclopropylmethyl-D-mannitol], the Ki is 9 µM.
Same read-out and setting: the figure for `O[C@@H]([C@H](O)[C@@H](COCC1CC1)OCC1CC1)[C@@H](COCC1CC1)OCC1CC1` [Compound 79, 1,2,5,6-tetra-O-cyclopropylmethyl-D-mannitol] is 21 µM.
In the case of `O[C@@H]([C@H](O)[C@@H](COCc1ccccc1)OCc1cccs1)[C@@H](COCc1ccccc1)OCc1ccc(F)cc1` [Compound 96, 1,6-di-O-benzyl-2-O-(4-fluorobenzyl)-5-O-(2-thienylmethyl)-D-mannitol], the inhibitory constant (Ki) amounted to 0.23 µM.
Turning to `O[C@@H]([C@H](O)[C@@H](COCC1CC1)OCc1ccccc1)[C@@H](COCC1CC1)OCc1ccccc1` [Compound 89, 1,6-di-O-cyclopropylmethyl-2,5-di-O-dibenzyl-D-mannitol], the Ki was 16 µM.

The assay is the same for the next values; noted with them: Table 3, di- and tri-substituted D-mannitol derivatives; pH 4.7, 30° C., substrate 10 μM, protease 18.3 nM.
In the case of `CSC(=S)O[C@H](COCc1ccccc1)[C@@H](O)[C@H](O)[C@@H](COCc1ccccc1)OCc1ccc(F)cc1` [Compound 106, 1,6-di-O-benzyl-2-O-(4-fluorobenzyl)-5-O-(methylthiothioxo)-D-mannitol], the Ki is above 5 µM.

Usually Ki stands for a measure of affinity in units of concentration, obtained from inhibition or displacement.
